Data reported in US12465594B2 (Brown University, priority 2018, dated 2025).

What was measured:
D4 = D4 (Homo sapiens, UniProt P21917); test: PDSP binding assay; details: 10 μM, quadruplicate, cloned target
M4 = M4 (Homo sapiens, UniProt P08173); test: PDSP binding assay; details: 10 μM, quadruplicate, cloned target
D1 = target: T1, D1 (Homo sapiens, UniProt P21728); test: PDSP binding assay; details: 10 μM, quadruplicate, cloned target
T1 construct: NIMH Psychoactive Drug Screening Program (PDSP)
T1 sequence (P21728 whole entry): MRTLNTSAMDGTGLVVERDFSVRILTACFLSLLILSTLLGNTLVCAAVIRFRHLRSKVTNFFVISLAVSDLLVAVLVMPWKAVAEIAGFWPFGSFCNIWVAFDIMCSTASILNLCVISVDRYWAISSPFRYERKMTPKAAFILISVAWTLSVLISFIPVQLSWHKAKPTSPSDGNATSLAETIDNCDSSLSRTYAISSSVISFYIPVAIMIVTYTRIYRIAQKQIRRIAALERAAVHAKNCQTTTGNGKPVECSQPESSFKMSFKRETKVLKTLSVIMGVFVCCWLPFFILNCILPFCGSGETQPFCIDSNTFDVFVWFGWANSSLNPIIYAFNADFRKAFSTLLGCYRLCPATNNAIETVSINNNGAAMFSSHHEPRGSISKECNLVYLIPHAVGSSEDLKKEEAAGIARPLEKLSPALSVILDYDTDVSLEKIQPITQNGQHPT

[1] = In vivo pharmacokinetic study, plasma and brain exposure; details: mouse, 10 mg/kg i.p.
M1 = M1 (Homo sapiens, UniProt P11229); test: PDSP binding assay; details: 10 μM, quadruplicate, cloned target
M5 = M5 (Homo sapiens, UniProt P08912); test: PDSP binding assay; details: 10 μM, quadruplicate, cloned target
[2] = Plasma protein binding (equilibrium dialysis); format: in vitro ADME; details: rat plasma
Text: (§1) Both compounds were then profiled for their plasma protein binding (PPB) and brain homogenate binding (BHB) to predict the unbound drug fraction in the plasma and brain respectively.

5-HT1B = target: T2, 5-HT1B (Homo sapiens, UniProt P28222); test: PDSP binding assay; details: 10 μM, quadruplicate, cloned target
T2 construct: NIMH Psychoactive Drug Screening Program (PDSP)

M2 = M2 (Homo sapiens, UniProt P08172); test: PDSP binding assay; details: 10 μM, quadruplicate, cloned target
Chain of M2 (P08172 whole entry): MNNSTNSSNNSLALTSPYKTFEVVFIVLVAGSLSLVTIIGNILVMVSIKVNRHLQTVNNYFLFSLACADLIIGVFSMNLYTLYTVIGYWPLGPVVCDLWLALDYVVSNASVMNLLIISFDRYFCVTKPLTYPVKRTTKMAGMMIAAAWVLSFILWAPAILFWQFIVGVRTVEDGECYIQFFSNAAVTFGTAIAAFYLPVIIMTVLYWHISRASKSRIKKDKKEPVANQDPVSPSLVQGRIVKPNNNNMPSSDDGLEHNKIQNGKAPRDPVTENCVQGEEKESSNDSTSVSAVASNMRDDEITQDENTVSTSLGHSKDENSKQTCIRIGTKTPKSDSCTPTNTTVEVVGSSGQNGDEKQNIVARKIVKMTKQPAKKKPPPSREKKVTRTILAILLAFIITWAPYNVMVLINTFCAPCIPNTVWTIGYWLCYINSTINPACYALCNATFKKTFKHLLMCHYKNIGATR

Alpha2C = Alpha2C (Homo sapiens, UniProt P18825); test: PDSP binding assay; details: 10 μM, quadruplicate, cloned target
Alpha2A = Alpha2A (Homo sapiens, UniProt P08913); test: PDSP binding assay; details: 10 μM, quadruplicate, cloned target
Chain of Alpha2A (P08913 whole entry): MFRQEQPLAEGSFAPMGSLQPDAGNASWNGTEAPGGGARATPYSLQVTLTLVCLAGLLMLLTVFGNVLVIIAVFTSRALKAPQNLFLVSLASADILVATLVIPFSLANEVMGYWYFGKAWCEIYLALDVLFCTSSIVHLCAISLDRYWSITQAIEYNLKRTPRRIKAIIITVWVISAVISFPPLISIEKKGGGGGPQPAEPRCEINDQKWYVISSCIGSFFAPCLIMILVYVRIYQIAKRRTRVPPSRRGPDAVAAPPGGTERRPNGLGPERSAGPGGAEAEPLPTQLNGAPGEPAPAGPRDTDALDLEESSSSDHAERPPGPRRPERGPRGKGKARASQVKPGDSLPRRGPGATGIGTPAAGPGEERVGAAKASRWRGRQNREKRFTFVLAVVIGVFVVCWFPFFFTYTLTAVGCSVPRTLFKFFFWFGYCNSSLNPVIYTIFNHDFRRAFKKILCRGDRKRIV

M3 = M3 (Homo sapiens, UniProt P20309); test: PDSP binding assay; details: 10 μM, quadruplicate, cloned target
5-HT3 = target: T3, 5-HT3 (Homo sapiens, UniProt P46098); test: PDSP binding assay; details: 10 μM, quadruplicate, cloned target
T3 construct: NIMH Psychoactive Drug Screening Program (PDSP)

5-HT1D = target: T4, 5-HT1D (Homo sapiens, UniProt P28221); test: PDSP binding assay; details: 10 μM, quadruplicate, cloned target
T4 construct: NIMH Psychoactive Drug Screening Program (PDSP)
T4 sequence (P28221 whole entry, species assumed): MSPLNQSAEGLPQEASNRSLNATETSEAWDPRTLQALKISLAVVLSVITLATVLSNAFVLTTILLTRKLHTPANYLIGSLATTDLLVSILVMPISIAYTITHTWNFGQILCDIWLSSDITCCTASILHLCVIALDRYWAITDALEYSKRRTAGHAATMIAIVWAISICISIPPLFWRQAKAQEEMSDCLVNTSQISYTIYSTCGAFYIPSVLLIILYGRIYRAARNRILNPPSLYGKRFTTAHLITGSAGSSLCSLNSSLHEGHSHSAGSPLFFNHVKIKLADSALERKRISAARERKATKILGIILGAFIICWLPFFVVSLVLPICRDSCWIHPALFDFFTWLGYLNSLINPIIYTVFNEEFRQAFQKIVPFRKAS

BZP Rat Brain Site = test: PDSP binding assay; details: 10 μM, quadruplicate
D2 = target: T5, D2 (Homo sapiens, UniProt P14416); test: PDSP binding assay; details: 10 μM, quadruplicate, cloned target
T5 construct: NIMH Psychoactive Drug Screening Program (PDSP)
T5 sequence (P14416 whole entry): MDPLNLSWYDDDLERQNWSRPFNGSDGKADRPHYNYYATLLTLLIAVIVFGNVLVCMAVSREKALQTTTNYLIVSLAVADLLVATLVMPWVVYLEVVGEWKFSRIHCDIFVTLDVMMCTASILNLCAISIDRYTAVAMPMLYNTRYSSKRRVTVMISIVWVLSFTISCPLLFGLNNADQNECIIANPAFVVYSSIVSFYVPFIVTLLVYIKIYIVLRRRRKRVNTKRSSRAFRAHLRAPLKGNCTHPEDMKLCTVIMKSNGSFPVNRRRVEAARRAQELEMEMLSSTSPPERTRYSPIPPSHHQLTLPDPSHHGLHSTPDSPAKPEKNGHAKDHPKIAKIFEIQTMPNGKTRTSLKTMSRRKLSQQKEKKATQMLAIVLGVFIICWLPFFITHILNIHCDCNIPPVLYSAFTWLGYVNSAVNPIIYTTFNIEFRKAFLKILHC

SERT = SERT (Homo sapiens, UniProt P31645); test: PDSP binding assay; details: 10 μM, quadruplicate, cloned target
Alpha1A = Alpha1A (Homo sapiens, UniProt P35348); test: PDSP binding assay; details: 10 μM, quadruplicate, cloned target
5-HT5A = target: T6, 5-HT5A (Homo sapiens, UniProt P47898); test: PDSP binding assay; details: 10 μM, quadruplicate, cloned target
T6 construct: NIMH Psychoactive Drug Screening Program (PDSP)
T6 sequence (P47898 whole entry, species assumed): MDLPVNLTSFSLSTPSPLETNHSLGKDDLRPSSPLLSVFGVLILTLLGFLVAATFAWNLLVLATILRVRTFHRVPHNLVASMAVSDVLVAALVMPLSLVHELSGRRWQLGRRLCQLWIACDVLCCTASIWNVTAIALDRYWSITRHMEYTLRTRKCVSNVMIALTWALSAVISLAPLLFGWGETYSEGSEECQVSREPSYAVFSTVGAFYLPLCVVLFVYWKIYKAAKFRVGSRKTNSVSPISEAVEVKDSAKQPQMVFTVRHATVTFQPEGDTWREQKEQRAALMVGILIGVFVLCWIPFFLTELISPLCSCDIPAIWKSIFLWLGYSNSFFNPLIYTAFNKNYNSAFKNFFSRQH

[3] = Brain homogenate binding (equilibrium dialysis); format: in vitro ADME; details: rat brain homogenate
Text: as §1

5-HT6 = target: T7, 5-HT6 (Homo sapiens, UniProt P50406); test: PDSP binding assay; details: 10 μM, quadruplicate, cloned target
T7 construct: NIMH Psychoactive Drug Screening Program (PDSP)
T7 sequence (P50406 whole entry, species assumed): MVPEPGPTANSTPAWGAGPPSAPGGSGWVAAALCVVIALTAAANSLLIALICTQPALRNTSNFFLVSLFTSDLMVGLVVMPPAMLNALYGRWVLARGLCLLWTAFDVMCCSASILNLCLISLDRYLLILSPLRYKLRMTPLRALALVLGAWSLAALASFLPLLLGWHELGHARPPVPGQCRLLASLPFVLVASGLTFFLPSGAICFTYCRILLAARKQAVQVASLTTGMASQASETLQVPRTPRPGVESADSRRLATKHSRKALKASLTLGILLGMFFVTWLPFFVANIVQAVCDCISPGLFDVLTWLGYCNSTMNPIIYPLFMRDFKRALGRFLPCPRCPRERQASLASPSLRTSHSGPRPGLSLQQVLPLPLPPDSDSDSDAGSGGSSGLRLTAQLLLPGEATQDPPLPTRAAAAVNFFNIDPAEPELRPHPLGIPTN

5-HT2A = target: T8, 5-HT2A (Homo sapiens, UniProt P28223); test: PDSP binding assay; details: 10 μM, quadruplicate, cloned target
T8 construct: NIMH Psychoactive Drug Screening Program (PDSP)
T8 sequence (P28223 whole entry, species assumed): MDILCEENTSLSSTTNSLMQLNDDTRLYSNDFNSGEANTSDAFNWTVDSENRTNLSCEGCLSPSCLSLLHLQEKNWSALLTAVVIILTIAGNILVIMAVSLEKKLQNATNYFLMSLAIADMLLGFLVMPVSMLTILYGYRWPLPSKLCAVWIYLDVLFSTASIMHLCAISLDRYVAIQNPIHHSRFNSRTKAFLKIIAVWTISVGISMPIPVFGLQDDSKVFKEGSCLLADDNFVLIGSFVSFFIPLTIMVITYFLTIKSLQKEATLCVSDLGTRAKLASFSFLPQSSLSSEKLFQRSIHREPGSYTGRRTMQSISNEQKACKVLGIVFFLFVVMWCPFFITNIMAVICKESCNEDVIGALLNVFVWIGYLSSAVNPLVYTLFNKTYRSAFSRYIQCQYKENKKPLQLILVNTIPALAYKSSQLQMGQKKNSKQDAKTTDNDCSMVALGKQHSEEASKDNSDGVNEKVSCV

DOR = DOR (Homo sapiens, UniProt P41143); test: PDSP binding assay; details: 10 μM, quadruplicate, cloned target
Chain of DOR (P41143 whole entry): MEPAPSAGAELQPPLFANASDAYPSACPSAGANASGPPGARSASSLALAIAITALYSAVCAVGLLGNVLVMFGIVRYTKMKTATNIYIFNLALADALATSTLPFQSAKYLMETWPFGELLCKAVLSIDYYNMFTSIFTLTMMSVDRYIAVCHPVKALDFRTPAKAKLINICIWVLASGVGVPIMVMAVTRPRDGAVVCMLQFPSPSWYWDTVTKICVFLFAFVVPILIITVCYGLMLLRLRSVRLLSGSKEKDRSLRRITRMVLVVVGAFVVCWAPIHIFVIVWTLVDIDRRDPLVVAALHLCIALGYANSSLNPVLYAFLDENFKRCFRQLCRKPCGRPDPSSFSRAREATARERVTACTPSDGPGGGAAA

Beta3 = Beta3 (Homo sapiens, UniProt P13945); test: PDSP binding assay; details: 10 μM, quadruplicate, cloned target
Chain of Beta3 (P13945 whole entry): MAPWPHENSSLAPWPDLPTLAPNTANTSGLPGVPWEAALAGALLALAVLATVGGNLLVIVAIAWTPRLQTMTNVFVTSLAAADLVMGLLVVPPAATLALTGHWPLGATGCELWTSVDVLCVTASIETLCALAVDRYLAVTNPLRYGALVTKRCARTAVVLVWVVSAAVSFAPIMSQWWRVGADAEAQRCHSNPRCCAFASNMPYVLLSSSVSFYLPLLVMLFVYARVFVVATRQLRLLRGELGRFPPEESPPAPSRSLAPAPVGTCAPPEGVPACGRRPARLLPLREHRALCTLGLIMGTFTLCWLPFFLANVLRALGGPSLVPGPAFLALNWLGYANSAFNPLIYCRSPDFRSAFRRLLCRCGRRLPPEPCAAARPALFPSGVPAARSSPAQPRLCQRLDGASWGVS

H3 = H3 (Homo sapiens, UniProt Q9Y5N1); test: PDSP binding assay; details: 10 μM, quadruplicate, cloned target

Chain of D4 (P21917 whole entry): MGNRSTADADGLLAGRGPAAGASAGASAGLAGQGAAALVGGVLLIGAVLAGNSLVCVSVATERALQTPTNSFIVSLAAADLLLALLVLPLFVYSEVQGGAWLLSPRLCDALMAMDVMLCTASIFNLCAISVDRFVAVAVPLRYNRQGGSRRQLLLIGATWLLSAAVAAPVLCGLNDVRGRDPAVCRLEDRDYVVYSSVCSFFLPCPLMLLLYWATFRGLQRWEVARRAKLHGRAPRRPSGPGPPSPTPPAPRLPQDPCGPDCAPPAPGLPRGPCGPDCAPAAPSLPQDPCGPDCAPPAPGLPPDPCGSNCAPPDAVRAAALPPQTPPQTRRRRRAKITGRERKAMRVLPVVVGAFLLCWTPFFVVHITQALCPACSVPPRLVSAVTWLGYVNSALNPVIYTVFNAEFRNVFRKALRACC

## Brc1ccccc1-c1nnc(CSc2nnnn2-c2ccccc2)o1 [MLS-0046818]
D4
  Activity at D4 (binding assay): −42%
M4
  Activity at M4 (binding assay): −12%
D1
  Activity at D1 (binding assay): −1%
[1]; 4 hour post-dose
  Brain exposure: 56 nM
  Brain exposure relative to IC50: 0.10 ×IC50
[1]; 6 hour post-dose
  Brain exposure relative to IC50: 0.14 ×IC50
[1]; 24 hour post-dose
  Brain exposure: 40 nM
  Brain exposure relative to IC50: 0.07 ×IC50
[1]
  Plasma Cmax exposure relative to in vitro IC50: 4.8 ×
M1
  Activity at M1 (binding assay): −15%
M5
  Activity at M5 (binding assay): −6%
[2]
  Plasma protein binding, free: 4.6 % free
5-HT1B
  Activity at 5-HT1B (binding assay): 5%
M2
  Activity at M2 (binding assay): 10%
Alpha2C
  Activity at Alpha2C (binding assay): 8%
Alpha2A
  Activity at Alpha2A (binding assay): 4%
M3
  Activity at M3 (binding assay): 13%
5-HT3
  Activity at 5-HT3 (binding assay): −2%
5-HT1D
  Activity at 5-HT1D (binding assay): −5%
BZP Rat Brain Site
  Activity at BZP Rat Brain Site (binding assay): 35%
D2
  Activity at D2 (binding assay): −13%
SERT
  Activity at SERT (binding assay): −14%
Alpha1A
  Activity at Alpha1A (binding assay): 10%
5-HT5A
  Activity at 5-HT5A (binding assay): −1%
[3]
  Brain homogenate binding, free: 2.3 % free
5-HT6
  Activity at 5-HT6 (binding assay): 35%
5-HT2A
  Activity at 5-HT2A (binding assay): 5%
DOR
  Activity at DOR (binding assay): −7%
Beta3
  Activity at Beta3 (binding assay): 27%
H3
  Activity at H3 (binding assay): −15%

## CC(C)Cn1c(SCC(=O)N2CCc3ccccc3C2)nc2cc(Cl)ccc2c1=O [MLS-0219419]
D4
  Activity at D4 (binding assay): −60%
M4
  Activity at M4 (binding assay): −6%
D1
  Activity at D1 (binding assay): 1%
[1]; 4 hour post-dose
  Brain exposure: 245 nM
  Brain exposure relative to IC50: 0.52 ×IC50
[1]; 24 hour post-dose
  Brain exposure: 78 nM
  Brain exposure relative to IC50: 0.17 ×IC50
[1]
  Plasma Cmax exposure relative to in vitro IC50: 1.7 ×
M1
  Activity at M1 (binding assay): −15%
M5
  Activity at M5 (binding assay): −2%
[2]
  Plasma protein binding, free: 0.1 % free
5-HT1B
  Activity at 5-HT1B (binding assay): 18%
M2
  Activity at M2 (binding assay): 23%
Alpha2C
  Activity at Alpha2C (binding assay): −5%
Alpha2A
  Activity at Alpha2A (binding assay): 8%
M3
  Activity at M3 (binding assay): 19%
5-HT3
  Activity at 5-HT3 (binding assay): 2%
5-HT1D
  Activity at 5-HT1D (binding assay): −5%
BZP Rat Brain Site
  Activity at BZP Rat Brain Site (binding assay): 25%
D2
  Activity at D2 (binding assay): −5%
SERT
  Activity at SERT (binding assay): −14%
Alpha1A
  Activity at Alpha1A (binding assay): −15%
5-HT5A
  Activity at 5-HT5A (binding assay): 12%
[3]
  Brain homogenate binding, free: 0.0 % free
5-HT6
  Activity at 5-HT6 (binding assay): 2%
5-HT2A
  Activity at 5-HT2A (binding assay): −1%
DOR
  Activity at DOR (binding assay): −8%
Beta3
  Activity at Beta3 (binding assay): 29%
H3
  Activity at H3 (binding assay): −9%
